Data from patent US8703156B2, “Liquid formulation for deferiprone with palatable taste” (Apotex Technologies Inc., priority 2008, dated 2014).
Peptide text beside a SMILES is read from it.

Test: degradation of Aspartame following 2 months storage
Assay type: physicochemical
Settings: pH below 3.4; confirmed by degradation following 2 months storage
Description: The sweetener was changed to Aspartame. After another round of taste testing the formulation with 10 g/L of Aspartame became the most acceptable formulation in terms of taste tolerability, but Aspartame is unstable at pH below 3.4 and this was confirmed by testing the degradation of Aspartame following 2 months storage.

In the case of COC(=O)[C@H](Cc1ccccc1)NC(=O)[C@@H](N)CC(=O)O [Aspartame] (HELM PEPTIDE1{D.F.[CO[*:1]]}$$$$V2.0), the “stability of Aspartame” value is reported as “unstable”.
